Patent publication US4154837A, “(Aminoalkoxy-aryl)-substituted isoquinolinones and naphthydrinones and salts thereof, and hypotensive compositions and methods employing them” (Boehringer Ingelheim GmbH, priority 1977, dated 1979)
Where two headings read alike, the source gives them in different places.

How the values were obtained:
[1] = system: blood circulation of dogs; assay: Effect on blood circulation (arterial blood pressure, heart rate, contractility dp/dt max) in anesthetized dogs; type: in vivo; details: for Decrease of contractility, duration / inhibition in vivo at 1 mg/kg / inhibition in vivo at 0.25 mg/kg: left ventricle; for inhibition in vivo at 1 mg/kg / inhibition in vivo at 0.25 mg/kg: Canis lupus familiaris, iv, read-out: Decrease of contractility dp/dt max.
Procedure: (1.) Effect on blood circulation: The blood circulation tests were performed on dogs with a body weight of 19-30 kg under chloralose-urethane-nembutalanesthesia (54+270+10 mg/kg i.v.). After opening the thorax in the 4th left intercostal space, artificial respiration was applied to the animals with room air by means of an Harvard-Respirator. The arterial blood-pressure was measured in an arteria carotis with a Statham-transducer; the heart rate was measured electronically from the sequence of R-peaks of the electrocardiogram. The maximum rate of pressure increase (dp/dt max) in the left ventricle was measured by means of a Konigsberg pressure-receiver and a Grass differentiation amplifier. All parameters were recorded by means of a direct-writer. For inhibition of coagulation the animals were given 10 mgm/kg of potassium polyethylenesulfonate i.v. in 20% of polydiol. The test compounds were intravenously administered to 4-6 dogs per compound.

[2] = in vivo; details: mouse, mice, observation period 14 days
Procedure: (3.) determination of acute toxicity
The acute toxicity of the test compounds was determined in mice (observation period: 14 days) after oral or intravenous administration. The LD50 was calculated from the percentage of the animals that dies during the observation period after administration of varying doses: […]

[3] = system: isolated guinea pig auricle; assay: effect on the force of contraction and frequency of the isolated guinea pig auricle; details: Cavia porcellus, 37° C.; for inhibition at 30 µg/mL: 3.10^-5 gm/ml; for inhibition at 10 µg/mL: 10^-5 gm/ml; for inhibition at 100 µg/mL: 10^-4 gm/ml; for inhibition at 3 µg/mL: 3.10^-6 gm/ml
Procedure: (2.) effect on the force of contraction and frequency of the isolated guinea pig auricle
In spontaneously beating isolated auricles of guinea pigs, which were kept in carbogen-aerated ([…] +5% CO2) Krebs-Henseleit-solution at a temperature of 37° C., and at predetermined concentrations of the test compounds, the maximum developed tension (isometric force of contraction) and the frequency were measured: […]

[4] = read-out: Decrease in frequency
[5] = read-out: Decrease in maximum force of contraction

SMILES | Decrease in heart rate ([1]; 1.0 mgm/kg i.v.) [beats/min] | Decrease in heart rate, duration ([1]; 1.0 mgm/kg i.v.) [min] | Effect on average arterial blood pressure ([1]; 1.0 mgm/kg i.v.) [mm Hg] | Effect on average arterial blood pressure, duration ([1]; 1.0 mgm/kg i.v.) [min] | Decrease of contractility, duration ([1]; 1.0 mgm/kg i.v.) [min] | inhibition in vivo at 1 mg/kg ([1]; 1.0 mgm/kg i.v.) [%] | LD50 at 336 h ([2]; iv) [mg/kg] | inhibition at 30 µg/mL [3, 4] [%] | inhibition at 30 µg/mL [3, 5] [%] | inhibition at 10 µg/mL [3, 4] [%] | inhibition at 10 µg/mL [3, 5] [%] | also measured
COc1ccc2cc(-c3ccc(OCC(O)CNC(C)(C)C)cc3)n(C)c(=O)c2c1 (stereo not drawn) [A, 2-methyl-3-[4-(2-hydroxy-3-tert. butylamino-propoxy)-phenyl]-7-methoxy-isoquinolin-1 (2H)-one] | 29 ± 15 | 36 | -20 ± 2 | 50 | 44 | 50 ± 10 | 62 | 30 | 82 | 23 | 50 | LD50 at 336 h ([2]; po): 460 mg/kg
COc1ccc2cc(CCc3ccc(OCC(O)CNC(C)C)cc3)n(C)c(=O)c2c1 (stereo not drawn) [H, 2-methyl-3-[4-(2-hydroxy-3-isopropylamino-propoxy)-phenethyl]-7-methoxy-isoquinolin-1 (2H)-one] | 34 ± 10 | 47 | -25 ± 15 | 20 | 47 | 53 ± 13 |  |  |  |  |  | 
COc1cc2cc(-c3ccc(OCC(O)CNC(C)(C)C)cc3)n(C)c(=O)c2cc1OC (stereo not drawn) [E, 2-methyl-3-[4-(2-hydroxy-3-tert. butylamino-propoxy)-phenyl]-6,7-dimethoxy-isoquinolin-1 (2H)-one] | 25 ± 6 | 51 | -18 ± 11 | 11 | 51 | 52 ± 8 |  | 31 | 54 |  |  | inhibition at 100 µg/mL [3, 4]: 46%; inhibition at 100 µg/mL [3, 5]: 72%
COc1ccc(-c2cc3ccc(OC)cc3c(=O)n2C)c(OCC(O)CNC(C)(C)C)c1 (stereo not drawn) [D, 2-methyl-3-[2-(2-hydroxy-3-tert. butylamino-propoxy)-4-methoxy-phenyl]-7-methyoxy-isoquinoline-1 (2H)-one-oxalate] |  |  |  |  |  |  |  | 40 | 64 |  |  | Decrease in heart rate ([1]; 0.25 mgm/kg i.v.): 15 ± 5 beats/min; Decrease in heart rate, duration ([1]; 0.25 mgm/kg i.v.): 27 min; Effect on average arterial blood pressure ([1]; 0.25 mgm/kg i.v.): -6 ± 3 mm Hg; Effect on average arterial blood pressure, duration ([1]; 0.25 mgm/kg i.v.): 24 min; Decrease of contractility, duration ([1]; 0.25 mgm/kg i.v.): 28 min; inhibition in vivo at 0.25 mg/kg ([1]; 0.25 mgm/kg i.v.): 36 ± 13%
COc1ccc2cc(-c3ccc(OCC(O)CNC(C)C)c(OC)c3)n(C)c(=O)c2c1 (stereo not drawn) [G, 2-methyl-3-[3-methoxy-4-(2-hydroxy-3-isopropylamino-propoxy)-phenyl]-7-methoxy-isoquinolin-1 (2H)-one] |  |  |  |  |  |  |  | 37 | 48 | 22 | 35 | Decrease in heart rate ([1]; 0.25 mgm/kg i.v.): 37 ± 5 beats/min; Decrease in heart rate, duration ([1]; 0.25 mgm/kg i.v.): 54 min; Effect on average arterial blood pressure ([1]; 0.25 mgm/kg i.v.): -3 ± 2 mm Hg; Effect on average arterial blood pressure, duration ([1]; 0.25 mgm/kg i.v.): 20 min; Decrease of contractility, duration ([1]; 0.25 mgm/kg i.v.): 48 min; inhibition in vivo at 0.25 mg/kg ([1]; 0.25 mgm/kg i.v.): 48 ± 6%
COc1cc2cc(-c3ccc(OCC(O)CNC(C)C)cc3)n(C)c(=O)c2cc1OC (stereo not drawn) [F, 2-methyl-3-[4-(2-hydroxy-3-isopropylamino-propoxy)-phenyl]-6,7-dimethoxy-isoquinolin-1 (2H)-one] | 12 ± 6 | 31 | -7 ± 3 | 17 | 43 | 33 ± 6 |  | 29 | 43 | 22 | 30 | 
COc1ccc(-c2cc3ccc(OC)cc3c(=O)n2C)c(OCC(O)CNC(C)C)c1.O=C(O)C(=O)O (stereo not drawn) [C, 2-methyl-3-[2-(2-hydroxy-3-isopropylamino-propoxy)-4-methoxy-phenyl]-7-methoxy-isoquinolin-1 (2H)-one-oxalate] | 38 ± 2 | 50 | -17 ± 3 | 40 | 50 | 53 ± 6 | 50 |  |  | 29 | 29 | LD50 at 336 h ([2]; po): 500 mg/kg; inhibition at 3 µg/mL [3, 4]: 15%; inhibition at 3 µg/mL [3, 5]: 17%
COc1ccc2cc(-c3ccccc3OCC(O)CNC(C)C)n(C)c(=O)c2c1.O=C(O)C(=O)O (stereo not drawn) [B, 2-methyl-3-[2-(2-hydroxy-3-isopropylamino-propoxy)-phenyl]-7-methoxy-isoquinolin-1 (2H)-one-oxalate] | 19 ± 6 | 50 | -24 ± 2 | 41 | 47 | 51 ± 7 | 47 |  |  |  |  | 
